Experimental data: ChEMBL document CHEMBL4138130, “Effect of mofezolac-galactose distance in conjugates targeting cyclooxygenase (COX)-1 and CNS GLUT-1 carrier” (Eur J Med Chem, 2017)
Active and inactive are the calls of the source. No cut-off for these calls is given here.

Assays:
[1] = target: T1, Prostaglandin G/H synthase 1 (Mus musculus) (UniProt P22437); assay: Inhibition of COX1 in mouse BV2 cells assessed as reduction in LPS-stimulated PGE2 release by measuring PGE2 level at 10 uM preincubated for 1 hr followed by LPS addition measured after 48 hrs by immunoassay (reference value: 0.7555 +/- 0.032 ng/ml); type: cell-based
T1 sequence (whole entry): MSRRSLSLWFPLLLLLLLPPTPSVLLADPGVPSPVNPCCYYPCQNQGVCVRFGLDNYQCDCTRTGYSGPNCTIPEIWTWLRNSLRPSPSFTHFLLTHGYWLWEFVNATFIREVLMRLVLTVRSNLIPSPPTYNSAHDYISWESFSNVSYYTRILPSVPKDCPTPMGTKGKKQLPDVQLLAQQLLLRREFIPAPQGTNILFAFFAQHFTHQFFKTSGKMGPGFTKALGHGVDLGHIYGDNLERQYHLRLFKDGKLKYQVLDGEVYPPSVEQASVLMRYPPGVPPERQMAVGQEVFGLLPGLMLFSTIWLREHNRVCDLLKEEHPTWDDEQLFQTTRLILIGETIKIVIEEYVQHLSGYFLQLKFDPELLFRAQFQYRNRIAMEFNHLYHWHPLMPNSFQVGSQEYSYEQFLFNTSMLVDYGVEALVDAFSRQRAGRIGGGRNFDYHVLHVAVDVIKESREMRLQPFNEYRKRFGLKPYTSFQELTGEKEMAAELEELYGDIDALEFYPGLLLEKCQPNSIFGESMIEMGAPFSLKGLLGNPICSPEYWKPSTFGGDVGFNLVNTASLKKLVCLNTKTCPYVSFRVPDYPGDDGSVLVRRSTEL

[2] = target: T2, GLUT1 (Solute carrier family 2, facilitated glucose transporter member 1) (Homo sapiens, UniProt P11166); assay: Apparent permeability across basolateral to apical side in human Caco2 cells assessed as GLUT1-mediated drug transport at 100 uM after 120 mins by UV-Visible spectroscopic method; type: ADME, cell-based; conditions: Caco-2
T2 sequence (P11166 whole entry): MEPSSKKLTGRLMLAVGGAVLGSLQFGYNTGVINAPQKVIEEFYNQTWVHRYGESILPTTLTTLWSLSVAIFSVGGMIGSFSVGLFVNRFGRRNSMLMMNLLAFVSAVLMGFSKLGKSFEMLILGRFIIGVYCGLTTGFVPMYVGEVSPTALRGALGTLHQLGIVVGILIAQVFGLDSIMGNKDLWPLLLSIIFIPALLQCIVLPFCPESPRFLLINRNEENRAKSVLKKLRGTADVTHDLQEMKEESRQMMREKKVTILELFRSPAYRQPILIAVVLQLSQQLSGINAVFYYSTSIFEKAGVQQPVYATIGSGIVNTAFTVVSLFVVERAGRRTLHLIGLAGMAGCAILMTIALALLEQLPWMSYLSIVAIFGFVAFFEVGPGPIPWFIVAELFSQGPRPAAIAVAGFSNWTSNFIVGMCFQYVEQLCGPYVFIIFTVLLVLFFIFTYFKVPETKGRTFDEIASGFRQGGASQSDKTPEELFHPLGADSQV

[3] = Apparent permeability across apical to basolateral side in human Caco2 cells at 100 uM after 120 mins by UV-Visible spectroscopic method; type: ADME, cell-based; conditions: Caco-2
[4] = target: T3, Solute carrier family 2, facilitated glucose transporter member 1 (Homo sapiens, UniProt P11166); assay: Permeability across basolateral to apical side in human Caco2 cells assessed as GLUT1-mediated drug transport by transportability method; type: ADME, cell-based; conditions: Caco-2
T3 sequence (P11166 whole entry): T2 sequence (P11166 whole entry)

[5] = target: T3, Solute carrier family 2, facilitated glucose transporter member 1; assay: Inhibition of GLUT1-mediated 2NBDG uptake in human Caco2 cells at 0.01 to 0.1 mM after 10 mins by Hoechst 33342 staining based fluorescence assay; type: cell-based; conditions: caco-2, 10 min, 100 µM
Caco-2 [6] = assay: Cell cycle arrest in human Caco2 cells assessed as accumulation at S-phase at 100 uM after 24 hrs by propidium iodide staining based flow cytometry; type: functional
Caco-2 [7] = assay: Cell cycle arrest in human Caco2 cells assessed as accumulation at G2/M-phase at 100 uM after 24 hrs by propidium iodide staining based flow cytometry; type: functional
Caco-2 [8] = assay: Cell cycle arrest in human Caco2 cells assessed as accumulation at G0/G1-phase at 100 uM after 24 hrs by propidium iodide staining based flow cytometry; type: functional
[9] = target: T4, Prostaglandin G/H synthase 1 (Homo sapiens, UniProt P23219); assay: Inhibition of human COX1 assessed as reduction in appearance of oxidized TMPD using arachidonic acid as substrate by colorimetric assay
[10] = target: T4, Prostaglandin G/H synthase 1; assay: Inhibition of human COX1 assessed as reduction in appearance of oxidized TMPD at 50 uM using arachidonic acid as substrate by colorimetric assay relative to control
[11] = target: T5, Prostaglandin G/H synthase 2 (Homo sapiens, UniProt P35354); assay: Inhibition of human COX2 assessed as reduction in appearance of oxidized TMPD using arachidonic acid as substrate by colorimetric assay
T5 sequence (P35354 whole entry): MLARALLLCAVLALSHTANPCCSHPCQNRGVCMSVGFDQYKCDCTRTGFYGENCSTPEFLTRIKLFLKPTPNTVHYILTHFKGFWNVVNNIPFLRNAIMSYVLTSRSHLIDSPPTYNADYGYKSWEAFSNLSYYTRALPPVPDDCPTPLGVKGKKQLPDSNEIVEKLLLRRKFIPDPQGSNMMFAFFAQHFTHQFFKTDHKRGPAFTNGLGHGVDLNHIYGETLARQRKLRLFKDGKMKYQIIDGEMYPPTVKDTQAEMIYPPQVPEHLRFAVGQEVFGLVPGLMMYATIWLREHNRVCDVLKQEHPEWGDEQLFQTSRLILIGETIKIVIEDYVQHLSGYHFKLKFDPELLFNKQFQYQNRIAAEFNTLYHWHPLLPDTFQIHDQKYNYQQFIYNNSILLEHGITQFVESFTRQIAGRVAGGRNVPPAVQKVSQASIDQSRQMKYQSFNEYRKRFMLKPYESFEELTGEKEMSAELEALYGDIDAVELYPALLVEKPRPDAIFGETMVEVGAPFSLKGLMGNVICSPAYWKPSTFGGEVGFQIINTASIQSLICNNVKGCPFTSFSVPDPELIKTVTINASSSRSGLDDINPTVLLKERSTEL

[12] = target: T6, Prostaglandin G/H synthase 2 (Homo sapiens) (UniProt P35354); assay: Inhibition of human COX2 assessed as reduction in appearance of oxidized TMPD at 50 uM using arachidonic acid as substrate by colorimetric assay relative to control
T6 sequence (whole entry): T5 sequence (P35354 whole entry)

Homo sapiens = organism: Homo sapiens; assay: Selectivity index, ratio of IC50 for inhibition of human COX2 to IC50 for inhibition of human COX1
[13] = target: T1, Prostaglandin G/H synthase 1 (Mus musculus); assay: Inhibition of COX1 in mouse BV2 cells assessed as reduction in LPS-stimulated PGE2 release by measuring PGE2 level at 0.5 uM preincubated for 1 hr followed by LPS addition measured after 48 hrs by immunoassay (reference value: 0.7555 +/- 0.032 ng/ml); type: cell-based
[14] = target: T1, Prostaglandin G/H synthase 1 (Mus musculus); assay: Inhibition of COX1 in mouse BV2 cells assessed as reduction in LPS-stimulated PGE2 release by measuring PGE2 level at 1 uM preincubated for 1 hr followed by LPS addition measured after 48 hrs by immunoassay (reference value: 0.7555 +/- 0.032 ng/ml); type: cell-based
[15] = Chemical stability in pH 1 simulated gastric fluid at 2.5 mg/ml after 60 mins by HPLC analysis; type: ADME, physicochemical; conditions: simulated gi fluid, pH 1, 1 h
[16] = Chemical stability in pH 7.3 simulated blood fluid at 2.5 mg/ml after 60 mins by HPLC analysis; type: ADME, physicochemical; conditions: pH 7.3, 1 h
[17] = Chemical stability in pH 8.8 simulated gut district fluid at 2.5 mg/ml after 60 mins by HPLC analysis; type: ADME, physicochemical; conditions: buffer, pH 8.8, 1 h
[18] = Metabolic stability in rat liver S9 fraction after 30 mins in presence of NADP+ by HPLC analysis; type: ADME, subcellular; conditions: s9, 0.5 h
[19] = Retention time of the compound by HPLC analysis; type: physicochemical
[20] = target: T3, Solute carrier family 2, facilitated glucose transporter member 1; assay: Inhibition of GLUT1-mediated 2NBDG uptake in human Caco2 cells at 1 to 10 mM after 10 mins by Hoechst 33342 staining based fluorescence assay; type: cell-based; conditions: caco-2, 10 min, 10000 µM

T4 sequence (P23219 whole entry): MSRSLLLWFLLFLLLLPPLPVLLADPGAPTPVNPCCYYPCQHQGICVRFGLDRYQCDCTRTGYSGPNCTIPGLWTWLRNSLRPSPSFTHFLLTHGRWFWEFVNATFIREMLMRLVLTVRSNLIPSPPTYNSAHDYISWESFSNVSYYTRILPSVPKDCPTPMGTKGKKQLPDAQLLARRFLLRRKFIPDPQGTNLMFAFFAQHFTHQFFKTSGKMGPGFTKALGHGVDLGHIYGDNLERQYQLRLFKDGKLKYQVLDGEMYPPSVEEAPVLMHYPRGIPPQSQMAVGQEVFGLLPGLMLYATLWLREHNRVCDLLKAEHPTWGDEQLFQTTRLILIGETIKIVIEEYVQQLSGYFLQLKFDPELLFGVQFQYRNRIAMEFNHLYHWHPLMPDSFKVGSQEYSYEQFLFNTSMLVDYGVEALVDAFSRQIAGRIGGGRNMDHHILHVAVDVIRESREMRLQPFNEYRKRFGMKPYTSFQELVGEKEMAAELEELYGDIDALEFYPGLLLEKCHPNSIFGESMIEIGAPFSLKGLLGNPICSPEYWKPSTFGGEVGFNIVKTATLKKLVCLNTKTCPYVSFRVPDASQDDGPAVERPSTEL

| Compound | Papp B→A at 2 h, 100 µM [2] [×10⁻⁶ cm/s] | Papp A→B at 2 h, 100 µM [3] [×10⁻⁶ cm/s] | permeability [4] | inhibition (INH) [5] | IC50 [9] [nM] | inhibition [10] [%] | IC50 [11] [nM] | inhibition [12] [%] | Ratio IC50 (Homo sapiens) | Activity [13] [ng/mL] | Activity (Caco-2 [6]) | Activity (Caco-2 [7]) | Activity (Caco-2 [8]) | other results |
| --- | --- | --- | --- | --- | --- | --- | --- | --- | --- | --- | --- | --- | --- | --- |
| COc1ccc(-c2noc(CC(=O)OC[C@H]3O[C@@H](O)[C@H](O)[C@@H](O)[C@H]3O)c2-c2ccc(OC)cc2)cc1 | 87.5 | 38 | Permeable | Active | 270 | 100 | 3100 | 87 | 11.5 | 0.0086 | inactive | inactive | inactive | Activity [1]: 0.0103 ng/mL; Activity [14]: 0.0178 ng/mL; Stability [15]: Stable; Stability [16]: Stable; Stability [17]: Stable; Stability [18]: Stable; Retention_time [19]: 7.504 min |
| OC[C@H]1OC(O)[C@H](O)[C@@H](O)[C@@H]1O (some centres not stated) [DEXTROSE] | – | – | – | – | – | – | – | – | – | – | – | – | – | inhibition (INH) [20]: Active |
| COc1ccc(-c2noc(CC(=O)O)c2-c2ccc(OC)cc2)cc1 [MOFEZOLAC] | 46.1 | 41.4 | Permeable | – | – | 100 | – | 38 | – | 0.0328 | inactive | inactive | inactive | – |

Now from value to compound, other results behind:

| Papp B→A at 2 h, 100 µM [2] [×10⁻⁶ cm/s] | Papp A→B at 2 h, 100 µM [3] [×10⁻⁶ cm/s] | permeability [4] | inhibition (INH) [5] | IC50 [9] [nM] | inhibition [10] [%] | IC50 [11] [nM] | inhibition [12] [%] | Ratio IC50 (Homo sapiens) | Activity [13] [ng/mL] | Compound | Activity (Caco-2 [6]) | Activity (Caco-2 [7]) | Activity (Caco-2 [8]) | other results |
| --- | --- | --- | --- | --- | --- | --- | --- | --- | --- | --- | --- | --- | --- | --- |
| 58.7 | 16.9 | Permeable | Active | 400 | 90 | 270 | 64 | 0.67 | – | COc1ccc(-c2noc(CC(=O)NCCCCCCCCCCC(=O)OC[C@H]3OC(O)[C@H](O)[C@@H](O)[C@H]3O)c2-c2ccc(OC)cc2)cc1 (some centres not stated) | inactive | inactive | inactive | – |
| 113 | 23.3 | Permeable | Active | > 50000 | 38 | > 50000 | 24 | – | – | COc1ccc(-c2noc(CC(=O)NCCCCC(=O)OC[C@H]3OC(O)[C@H](O)[C@@H](O)[C@H]3O)c2-c2ccc(OC)cc2)cc1 (some centres not stated) | Active | Active | – | – |
